Holding throughout (type): functional
Parameters in all cases: scale not given: the % may be the effect or the level left

For assay [1], the system named is Mucor circinelloides. In words: Antifungal activity against Mucor circinelloides R7B wild type strain assessed as reduction in spore germination at 100 ug/ml relative to control. The note with it: dose 100 µg/ml.
Assay [2] deals with Mucor circinelloides. Briefly: Antifungal activity against Mucor circinelloides M5 strain assessed as reduction in spore germination at 100 ug/ml relative to control. The following applies: dose 100 µg/ml.
Assay [3] deals with Mucor circinelloides. In words: Antifungal activity against Mucor circinelloides R7B wild type strain assessed as reduction in spore germination at 25 ug/ml relative to control. The note with it: dose 25 µg/ml.
Assay [4] deals with Mucor circinelloides. In words: Antifungal activity against Mucor circinelloides R7B wild type strain assessed as reduction in spore germination at 150 ug/ml relative to control. The following applies: dose 150 µg/ml.
Assay [5] has as its system Mucor circinelloides. Briefly: Antifungal activity against Mucor circinelloides M5 strain assessed as reduction in spore germination at 25 ug/ml relative to control. The following applies: dose 25 µg/ml.
The test system of assay [6] is Mucor circinelloides. In words: Antifungal activity against Mucor circinelloides R7B wild type strain assessed as reduction in spore germination at 50 ug/ml relative to control. The following applies: dose 50 µg/ml.
In assay [7] the test system is Mucor circinelloides. In words: Antifungal activity against Mucor circinelloides M5 strain assessed as reduction in spore germination at 50 ug/ml relative to control. The following applies: dose 50 µg/ml.
Assay [8] concerns Mucor circinelloides. In words: Antifungal activity against Mucor circinelloides M5 strain assessed as reduction in spore germination at 150 ug/ml relative to control. The following applies: dose 150 µg/ml.

Molecules are shown by their SMILES.

`COc1ccc(-c2cc(OC)c3ccccc3n2)cc1OC`: the results for the Activity in the assay on Mucor circinelloides [1] and with Mucor circinelloides [2] were 97.1% and 96.2%, respectively.

With `O=[N+]([O-])c1ccc(Oc2cc(-c3ccccc3)nc3ccccc23)cc1`, the Activity in the assay with Mucor circinelloides [1] is recorded as 98.1%; in the assay with Mucor circinelloides [2], 98.2%.

`COc1cc(-c2ccc(Cl)cc2)nc2ccccc12`: the figures for the Activity in the assay with Mucor circinelloides [1] and in the assay with Mucor circinelloides [2] were 98.1% and 97.3%, respectively.

As for `Clc1cccc(-c2cc(Oc3ccccc3)c3ccccc3n2)c1`, the figures for the Activity in the assay on Mucor circinelloides [1] and in the assay with Mucor circinelloides [2] were 89.1% and 85.6%, respectively.

As to `COc1cc(-c2cc(F)cc(F)c2)nc2ccccc12`, the Activity in the assay on Mucor circinelloides [1] turned out to be 32.8%; in the assay with Mucor circinelloides [2], 29.7%.

For the compound `Clc1ccc(-c2cc(Oc3ccccc3)c3ccccc3n2)cc1Cl`, the Activity in the assay on Mucor circinelloides [1] is reported as 60.8%; with Mucor circinelloides [2], 57.8%.

As to `COc1cc(-c2ccccc2)nc2ccccc12`, the Activity with Mucor circinelloides [1] was determined as 97.8%; in the assay on Mucor circinelloides [2], 95.8%.

As for `O=[N+]([O-])c1ccc(Oc2cc(-c3ccc(Cl)c(Cl)c3)nc3ccccc23)cc1`, the Activity turned out to be 83.9% with Mucor circinelloides [1] and 85.9% with Mucor circinelloides [2].

Consider `COc1cc(-c2ccc(F)cc2)nc2ccccc12`, for which the Activity in the assay with Mucor circinelloides [1] is 17.1%; in the assay on Mucor circinelloides [3], 73.1%; in the assay on Mucor circinelloides [4], 12.6%; in the assay on Mucor circinelloides [5] it was 78.4%; with Mucor circinelloides [2], 20.6%; in the assay with Mucor circinelloides [6] it was 60.3%. Moreover, the Activity in the assay with Mucor circinelloides [7] is on record as 47.9%; with Mucor circinelloides [8], 14.9%.

Consider `c1ccc(Oc2cc(-c3ccccc3)nc3ccccc23)cc1`, for which the Activity with Mucor circinelloides [1] is recorded as 97.4%; in the assay on Mucor circinelloides [2], 97.9%.

Regarding `O=[N+]([O-])c1ccc(Oc2cc(-c3ccc(Cl)cc3)nc3ccccc23)cc1`, the Activity stood at 81.7% in the assay on Mucor circinelloides [1] and 82.9% in the assay on Mucor circinelloides [2].

`O=[N+]([O-])c1ccc(Oc2cc(-c3cccc(C(F)(F)F)c3)nc3ccccc23)cc1`: the Activity in the assay with Mucor circinelloides [1] was 32.8%; in the assay on Mucor circinelloides [2], 29.7%.

On to `Fc1ccc(-c2cc(Oc3ccccc3)c3ccccc3n2)cc1`, for which the Activity stood at 39.8% in the assay with Mucor circinelloides [1] and 38.6% in the assay on Mucor circinelloides [2].

As for `COc1cc(-c2cccc(C(F)(F)F)c2)nc2ccccc12`, the Activity in the assay on Mucor circinelloides [1] is 88.9%; in the assay on Mucor circinelloides [2], 89.7%.

Take `Cc1cccc(-c2cc(Oc3ccc([N+](=O)[O-])cc3)c3ccccc3n2)c1`: the Activity in the assay with Mucor circinelloides [1] and in the assay on Mucor circinelloides [2] was 98.1% in each case.

Regarding `Fc1cc(F)cc(-c2ccc3ccccc3n2)c1`, the Activity in the assay with Mucor circinelloides [1] is 57.5%; in the assay with Mucor circinelloides [2], 59.5%.

`c1ccc(Oc2cc(-c3ccc4c(c3)OCO4)nc3ccccc23)cc1`: the Activity in the assay with Mucor circinelloides [1] came to 28.2%; in the assay with Mucor circinelloides [3], 74.2%; in the assay on Mucor circinelloides [4], 21.6%; in the assay with Mucor circinelloides [5], 69.7%; with Mucor circinelloides [2], 29.5%; in the assay with Mucor circinelloides [6], 47.6%. The Activity is listed as 52.8% in the assay on Mucor circinelloides [7] and 23.4% in the assay with Mucor circinelloides [8].

Turning to `O=[N+]([O-])c1ccc(Oc2cc(-c3cccc(Cl)c3)nc3ccccc23)cc1`, the Activity in the assay with Mucor circinelloides [1] amounted to 32.7%; in the assay on Mucor circinelloides [2] it was 21.9%.

On to `COc1ccc(-c2cc(Oc3ccccc3)c3ccccc3n2)cc1OC`, for which the Activity is 98.1% in the assay on Mucor circinelloides [1] and 98.2% in the assay with Mucor circinelloides [2].

On to `COc1cc(-c2ccc(C)cc2)nc2ccccc12`, for which the results for the Activity in the assay with Mucor circinelloides [1] and with Mucor circinelloides [2] were 81.9% and 84.9%, respectively.

Consider `COc1ccc(-c2cc(Oc3ccccc3)c3ccccc3n2)cc1`, for which the Activity in the assay with Mucor circinelloides [1] is 94.3%; in the assay with Mucor circinelloides [2], 92.1%.

Consider `FC(F)(F)c1ccc(Oc2cc(-c3cccc(Cl)c3)nc3ccccc23)cc1`, for which the Activity in the assay with Mucor circinelloides [1] came out at 42.2%; in the assay on Mucor circinelloides [2] it was 38.3%.

On to `c1ccc(-c2ccc3ccccc3n2)cc1` [2-PHENYLQUINOLINE], for which the Activity in the assay with Mucor circinelloides [1] amounted to 98.1%; with Mucor circinelloides [2], 98.2%.

As for `Cc1cc(C)cc(-c2ccc3ccccc3n2)c1`, the Activity in the assay on Mucor circinelloides [1] is 84.9%; in the assay on Mucor circinelloides [2], 87.6%.

For `COc1cc(-c2ccc(Cl)c(Cl)c2)nc2ccccc12`, the Activity is given as 96.1% in the assay on Mucor circinelloides [1] and 93.7% in the assay on Mucor circinelloides [2].

Turning to `Clc1ccc(-c2cc(Oc3ccccc3)c3ccccc3n2)cc1`, the Activity is given as 36.1% in the assay on Mucor circinelloides [1] and 32.3% with Mucor circinelloides [2].
